# What was measured:
# Assay type in all cases: cell-based
# TEAD1 = assay: MCF-7 TEAD1-luciferase reporter assay (MCF7-TEAD-Luc); conditions: MCF7 cells, overnight; for IC50: Homo sapiens; for TEAD1-Luc MCF7: Max Inhibition: % of DMSO-treated control
# Method: The ability of compounds to inhibit TEAD-dependent transcription was assessed in the MCF7-TEAD-Luc reporter assay (BPS #60618). Cells were seeded at 10,000 cells in 200 μL per well into white wall, clear bottom 96-well plates (Corning #3610) and incubated at 37° C. for 24 hours, then treated with serial diluted compounds overnight, and luciferase signal was measured using the ONE-Step Luciferase Assay System (BPS #60690) using an EnSight Multimode plate reader (PerkinElmer, model #MLDHH34000000, integration time 100 ms) with Kaleido 3.0. software. For data analysis, dose-dependent curves were plotted as “% inhibition” (% of DMSO-treated control wells), and were fitted by four-parametric model in GraphPad Prism to obtain IC50 values.
# NCI-H226 cells = assay: Cell proliferation and viability assay (CPA) in NCI-H226 cells; conditions: up to 6 d; for IC50: Homo sapiens, 144 h, read-out: CPA NCI-H226 IC50 Ave
# Method: Compound potency and efficacy in inhibiting cell proliferation and viability was assessed in multiple cell lines. For example, NCI-H226 cells (ATCC #CRL-5826) were seeded at 2000 cells in 200 μL medium per well of a 96-well plate (Corning #3610) and incubated at 37° C. for 24 hours, then treated with serial diluted compounds for up to 6 d. Viable cells were measured by CellTiter-Glo 2.0 Cell Viability Assay (Promega #G9243), and the luminescence signal was read using an EnSight Multimode plate reader (PerkinElmer, model 9MLDHH34000000, integration time 100 ms) with Kaleido 3.0. software. For data analysis, dose-dependent curves were plotted as “inhibition” (% of DMSO-treated control wells), and were fitted by four-parametric model in GraphPad Prism to obtain IC50 values. […]
# H2052 cells = assay: Cell proliferation and viability assay (CPA) in H2052 cells; conditions: for IC50: Homo sapiens, NCI-H2052, read-out: CPA H2052 IC50 Ave
# Method: Compound potency and efficacy in inhibiting cell proliferation and viability was assessed in multiple cell lines. For example, NCI-H226 cells (ATCC #CRL-5826) were seeded at 2000 cells in 200 μL medium per well of a 96-well plate (Corning #3610) and incubated at 37° C. for 24 hours, then treated with serial diluted compounds for up to 6 d. Viable cells were measured by CellTiter-Glo 2.0 Cell Viability Assay (Promega #G9243), and the luminescence signal was read using an EnSight Multimode plate reader (PerkinElmer, model 9MLDHH34000000, integration time 100 ms) with Kaleido 3.0. software. For data analysis, dose-dependent curves were plotted as “inhibition” (% of DMSO-treated control wells), and were fitted by four-parametric model in GraphPad Prism to obtain IC50 values.
# Alternatively, cells were plated at 2000 cells in 200 μL medium per well of a 96-well plate (Corning #3585) overnight, treated with compound for 7 days, cell density images taken by Incycte S3 live cell analysis instrument (Sartorius) every 24 hours at the same time. Images were analyzed by Incucyte's AI-driven software to get C “% confluence” for every image. Dose-dependent curves were plotted as “% inhibition” (% o of DMSO-treated control wells) and were fitted by four-parametric model in GraphPad Prism to obtain IC50 values.
IC50 (TEAD1) [nM],IC50 (NCI-H226 cells) [nM],IC50 (H2052 cells) [nM],SMILES,TEAD1-Luc MCF7: Max Inhibition (TEAD1),CPA NCI-H226 Max Inh Ave (NCI-H226 cells),CPA H2052 Max Inh Ave (H2052 cells)
10 to 100,≤ 100,100 to 500,"C=CC(=O)N1CC[C@](C#Cc2ccc(C(F)(F)F)cc2)(OC)C1 (single isomer, unassigned) [Example 59, (R*)-1-(3-methoxy-3-((4-(trifluoromethyl)phenyl)ethynyl)pyrrolidin-1-yl)prop-2-en-1-one]",A (A ≥ 75%),A (A ≥ 75%),B (75% > B ≥ 50%)
10 to 100,≤ 100,≤ 100,"C=CC(=O)N1CC[C@](C)(C#Cc2ccc(C(F)(F)F)cc2)C1 (single isomer, unassigned) [Example 60, 1-[(3R*)-3-methyl-3-{2-[4-(trifluoromethyl)phenyl]ethynyl}pyrrolidin-1-yl]prop-2-en-1-one]",A (A ≥ 75%),A (A ≥ 75%),A (A ≥ 75%)
10 to 100,≤ 100,≤ 100,"C=CC(=O)N1CC[C@@](C)(C#Cc2ccc(C(F)(F)F)cc2)C1 (single isomer, unassigned) [Example 61, 1-[(3S*)-3-methyl-3-{2-[4-(trifluoromethyl)phenyl]ethynyl}pyrrolidin-1-yl]prop-2-en-1-one]",A (A ≥ 75%),B (75% > B ≥ 50%),A (A ≥ 75%)
≤ 10,≤ 100,≤ 100,"C=CC(=O)N1CC[C@@H](C#Cc2ccc(C(F)(F)F)cc2)C1 (single isomer, unassigned) [Example 67, (S*)-1-(3-((4-(trifluoromethyl)phenyl)ethynyl)pyrrolidin-1-yl)prop-2-en-1-one]",A (A ≥ 75%),A (A ≥ 75%),A (A ≥ 75%)
≤ 10,100 to 500,≤ 100,"C=CC(=O)N1CC(C/C=C\c2cc(C(F)(F)F)on2)C1 [Example 1, 1-{3-[(2Z)-3-[5-(trifluoromethyl)-1,2-oxazol-3-yl]prop-2-en-1-yl]azetidin-1-yl}prop-2-en-1-one]",A (A ≥ 75%),B (75% > B ≥ 50%),B (75% > B ≥ 50%)
10 to 100,,100 to 500,C=CC(=O)N1CC[C@@H](/C=C/c2ccc(C(F)(F)F)cc2)C1 [Example 9],,,
≤ 10,100 to 500,≤ 100,"C=CC(=O)N1CC(/C=C/c2ccc(C(F)(F)F)cn2)C1 [Example 11, 1-(3-(2-(5-(trifluoromethyl)pyridin-2-yl)vinyl)azetidin-1-yl)prop-2-en-1-one]",A (A ≥ 75%),A (A ≥ 75%),A (A ≥ 75%)
10 to 100,,100 to 500,C=CC(=O)N1CC(/C=C\c2cnc(C(F)(F)F)s2)C1 [Example 12],,,
≤ 10,≤ 100,≤ 100,"C=CC(=O)N1CC(/C=C/c2cnc(C(F)(F)F)s2)C1 [Example 13, 1-{3-[(E)-2-[2-(trifluoromethyl)-1,3-thiazol-5-yl]ethenyl]azetidin-1-yl}prop-2-en-1-one]",A (A ≥ 75%),B (75% > B ≥ 50%),B (75% > B ≥ 50%)
10 to 100,,100 to 500,C=CC(=O)N1CC(/C=C/c2cccc(C(F)(F)F)c2)C1 [Example 14],B (75% > B ≥ 50%),,B (75% > B ≥ 50%)
10 to 100,,,"C=CC(=O)N1CCCC(C#Cc2ccc(C(F)(F)F)cc2)C1 (stereo not shown) [Example 76, 1-(3-((4-(trifluoromethyl)phenyl)ethynyl)piperidin-1-yl)prop-2-en-1-one]",A (A ≥ 75%),,
10 to 100,,,"CC#CC(=O)N1CC(/C=C/c2ccc(C(F)(F)F)cc2)C1 [Example 77, (E)-1-(3-(4-(trifluoromethyl)styryl)azetidin-1-yl)but-2-yn-1-one]",B (75% > B ≥ 50%),,
100 to 500,,,"C#CC(=O)N1CC(/C=C/c2ccc(C(F)(F)F)cc2)C1 [Example 78, (E)-1-(3-(4-(trifluoromethyl)styryl)azetidin-1-yl)prop-2-yn-1-one]",A (A ≥ 75%),,
10 to 100,,,"C=CC(=O)N1CCC(C#Cc2cccc(C(F)(F)F)c2)CC1 [Example 79, 1-(4-((3-(trifluoromethyl)phenyl)ethynyl)piperidin-1-yl)prop-2-en-1-one]",B (75% > B ≥ 50%),,
10 to 100,,,"C=CC(=O)N1CCC(C#Cc2ccc(C(F)(F)F)cc2)CC1 [Example 80, 1-(4-((4-(trifluoromethyl)phenyl)ethynyl)piperidin-1-yl)prop-2-en-1-one]",A (A ≥ 75%),,
100 to 500,,,"CC#CC(=O)N1CC[C@H](/C=C/c2ccc(C(F)(F)F)cc2)C1 [Example 81, (R,E)-1-(3-(4-(trifluoromethyl)styryl)pyrrolidin-1-yl)but-2-yn-1-one]",B (75% > B ≥ 50%),,
10 to 100,,,"C#CC(=O)N1CC[C@H](/C=C/c2ccc(C(F)(F)F)cc2)C1 [Example 82, (R, E)-1-(3-(4-(trifluoromethyl)styryl)pyrrolidin-1-yl)prop-2-yn-1-one]",A (A ≥ 75%),,
10 to 100,,,"C=CC(=O)N1CC[C@H](C(C)(C)/C=C/c2ccc(C(F)(F)F)cc2)C1 [Example 86, (R, E)-1-(3-(2-methyl-4-(4-(trifluoromethyl)phenyl)but-3-en-2-yl)pyrrolidin-1-yl)prop-2-en-1-one]",B (75% > B ≥ 50%),,
100 to 500,,,"C=CC(=O)N1CC[C@H](/C=C\c2ccc(C(F)(F)F)cc2)C1 [Example 87, (R, Z)-1-(3-(4-(trifluoromethyl)styryl)pyrrolidin-1-yl)prop-2-en-1-one]",B (75% > B ≥ 50%),,
10 to 100,,,"C=CC(=O)N1CCC(C/C=C/c2ccc(C(F)(F)F)cc2)CC1 [Example 90, (E)-1-(4-(3-(4-(trifluoromethyl)phenyl)allyl)piperidin-1-yl)prop-2-en-1-one]",B (75% > B ≥ 50%),,
10 to 100,,,"C=CC(=O)N1CCC(/C=C/C(O)c2ccc(C(F)(F)F)cc2)C1 (stereo not shown) [Example 99, (E)-1-(3-(3-hydroxy-3-(4-(trifluoromethyl)phenyl)prop-1-en-1-yl)pyrrolidin-1-yl)prop-2-en-1-one]",B (75% > B ≥ 50%),,
10 to 100,,,"C=CC(=O)N1CCC(/C=C\C(O)c2ccc(C(F)(F)F)cc2)C1 (stereo not shown) [Example 100, (Z)-1-(3-(3-hydroxy-3-(4-(trifluoromethyl)phenyl)prop-1-en-1-yl)pyrrolidin-1-yl)prop-2-en-1-one]",B (75% > B ≥ 50%),,
100 to 500,,,"C=CC(=O)N1CCC(/C=C\C(OC)c2ccc(C(F)(F)F)cc2)C1 (stereo not shown) [Example 101, (Z)-1-(3-(3-methoxy-3-(4-(trifluoromethyl)phenyl)prop-1-en-1-yl)pyrrolidin-1-yl)prop-2-en-1-one]",B (75% > B ≥ 50%),,
10 to 100,,,"C=CC(=O)N1CCC(/C=C/C(OC)c2ccc(C(F)(F)F)cc2)C1 (stereo not shown) [Example 102, (E)-1-(3-(3-methoxy-3-(4-(trifluoromethyl)phenyl)prop-1-en-1-yl)pyrrolidin-1-yl)prop-2-en-1-one]",C (50% > C ≥ 2%),,
10 to 100,,,"C=CC(=O)N1CCC2(C=C(c3ccc(C(F)(F)F)cc3)OC2)C1 (stereo not shown) [Example 105, 1-(3-(4-(trifluoromethyl)phenyl)-2-oxa-7-azaspiro[4.4]non-3-en-7-yl)prop-2-en-1-one]",A (A ≥ 75%),,
10 to 100,,,"C=CC(=O)N1CCC2(CC(/C=C/c3ccc(C(F)(F)F)cc3)C2)C1 (stereo not shown) [Example 106, (E)-1-(2-(4-(trifluoromethyl)styryl)-6-azaspiro[3.4]octan-6-yl)prop-2-en-1-one]",B (75% > B ≥ 50%),,

# Reference: patent US20260347319A1, “YAP/TAZ-TEAD ONCOPROTEINS INHIBITORS” (BridGene Biosciences, Inc., priority 2022, published 2026)
